Laboratory results: patent publication US20050267357A1, “fMRI system for detecting symptoms associated with Attention Deficit Hyperactivity Disorder” (priority 2003, published 2005)

Test system: left insula/frontal operculum of ADHD and control groups
Assay: fMRI during N-Back working memory and sustained attention task, on and off medication
Format: in vivo
Conditions: 1-B, 2-B and 3-B N-Back conditions, 0.2 mg/kg and 0.4 mg/kg MP compared with placebo
Description: A General Electric Signa EXCITE 3.0 Tesla MRI scanner is used for implementing the present invention although any of a number of commercial MRI scanners having 3.0 or 1.5 Tesla fields could be used. Typical imaging parameters involve, for example, the acquisition of 36 contiguous axial slices that cover the entire brain (typically 4 mm thick) using a blipped gradient-echo, echoplanar pulse sequence (echo time (TE)=25 msec; interscan period (TR)=[…]; field of view (FOV)=24 cm; 64×64 voxel matrix; 3.75 mm.×3.75 mm in-plane resolution). High resolution (124 axial slices) spoiled GRASS (gradient-recalled at steady-state) anatomic images [TE=3.9 ms; TR (repetition time)=9.5 ms, 120 flip angle, NEX (number of excitations)=1, slice thickness=1.0 mm, FOV=24 cm, matrix size=256×224] are acquired prior to functional imaging for anatomical localization of functional activation and co-registration. Stimulus presentation and general communication to the patient in the MR scanner is accomplished with stereo audio headphones and computer generated images fed into a digital LCD projector which are back projected to the subject and viewed by the patient through prismatic glasses. Subject responses are recorded on a small hand held keyboard or response device including multiple response buttons. […]

In the case of COC(=O)C(c1ccccc1)C1CCCCN1 (stereo not shown) [MP, Methylphenidate], the “Group differences (ADHD vs control) in brain activation (percent MR signal intensity)” value is reported as “tended to disappear”.
